Data set [1] can be described thus: Particle size (x50, x90) of micronized drug crystals. Type of data set: physicochemical. To be noted: micronized drug crystals used in the respirable agglomerates. Here is the method: “Mass median diameter” or “MMD” or “×50” as used herein means the median diameter of a plurality of particles, typically in a polydisperse particle population, i.e., consisting of a range of particle sizes. MMD values as reported herein are determined by laser diffraction (Sympatec Helos, Clausthal-Zellerfeld, Germany), unless the context indicates otherwise.
An MMD or an ×50 (particle size distribution wherein 50% of the particles are sized smaller) of the micronized active ingredients should be less than about 3 micron (μm), preferably less than about 2 μm, or 1 μm. In embodiments of the invention, an ×50 is about 0.1-3 μm. An ×90 (particle size distribution wherein 90% of the particles are sized smaller) should be less than 7 μm, preferably less than 5 μm, or 3 μm.

A short description of data set [2]: Delivered dose uniformity from Concept1 dry powder inhaler. The format is physicochemical. To be noted: each drug in respirable agglomerates Lot 11015A-7-6, size 3 hypromellose capsules, Concept1, 60 L/min, 2 L, on filter, RP-HPLC. Here is the method:
“Emitted Dose” or “ED” as used herein refers to an indication of the delivery of dry powder from an inhaler device after an actuation or dispersion event from a powder unit. ED is defined as the ratio of the dose delivered by an inhaler device to the nominal or metered dose. The ED is an experimentally determined parameter, and may be determined using an in vitro device set up which mimics patient dosing. It is sometimes also referred to as the Delivered Dose (DD). The ED is determined using a drug specific method such as high pressure liquid chromatography.
The bulk powder was filled into size 3 hypromellose capsules. The capsules were then individually filled into a Concept1 dry powder Inhaler (as described herein). The Concept1 Inhaler is a low resistance, capsule-based dry powder Inhaler. The device was emptied at a flow rate of 60 L/min and an inhaled volume of 2 L onto a filter. The mass of each Individual drug on the filter was quantitated by RP-HPLC. The total mass of powder on the filter was also determined gravimetrically.

Data set [3] can be described thus: Physical form of indacaterol acetate by X-ray powder diffraction. Type of data set: physicochemical. The note with it: for Physical stability of the salt form in water: suspended in water / aqueous feedstock to be spray-dried, acetate. The protocol:
In the process of the present invention, an ordered mixture of micronized indacaterol acetate crystals and small porous particles are created by suspending the particles in a liquid perfluorocarbon, and then removing the liquid in a drying process. The physical form of the indacaterol acetate drug substance can be determined by X-ray powder diffraction (XRPD).
The pattern is dominated by the characteristic phospholipid peak at 20=21°. […] Peaks characteristic of indacaterol free base are not present.

A further data set deals with β2-adrenoceptor (Homo sapiens, UniProt P07550). The note with it: cited from earlier work.

Structures are written as SMILES.

Chain of β2-adrenoceptor (P07550 whole entry, species assumed): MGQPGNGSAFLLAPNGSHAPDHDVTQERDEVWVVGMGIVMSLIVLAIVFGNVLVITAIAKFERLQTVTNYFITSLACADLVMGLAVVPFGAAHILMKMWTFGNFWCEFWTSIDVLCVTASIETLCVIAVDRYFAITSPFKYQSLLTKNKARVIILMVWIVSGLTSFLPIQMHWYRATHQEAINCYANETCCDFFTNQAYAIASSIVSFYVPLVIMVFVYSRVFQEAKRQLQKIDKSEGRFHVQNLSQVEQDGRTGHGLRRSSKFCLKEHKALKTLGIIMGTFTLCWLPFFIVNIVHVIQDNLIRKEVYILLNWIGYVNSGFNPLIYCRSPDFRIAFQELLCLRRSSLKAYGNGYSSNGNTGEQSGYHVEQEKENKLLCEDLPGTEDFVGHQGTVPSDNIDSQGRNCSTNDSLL

Consider `C[N+]1(C)CCC(OC(=O)C(O)(c2ccccc2)C2CCCC2)C1.[Br-]` (centres unmarked) [Glycopyrronium bromide, 3-[(cyclopentyl-hydroxyphenyl-acetyl)oxy]-1,1-dimethylpyrrolidinium bromide], for which, in data set [1], the “×50” value turned out to be 2.96 μm and the “×90” value is given as 6.52 μm. Besides, in data set [2], the “Mean delivered dose (% nominal)” value stood at 82.1 % nominal.
For the molecule `CC(=O)O.CCc1cc2c(cc1CC)CC(NC[C@H](O)c1ccc(O)c3[nH]c(=O)ccc13)C2` [indacaterol acetate, (R)-5-[2-(5,6-diethyl-indan-2-ylamino)-1-hydroxyethyl]-8-hydroxy-1H-quinolin-2-one acetate], in data set [1], the “×50” value was 1.63 μm and the “×90” value was 3.08 μm. Further, in data set [3] (suspended in perfluorooctyl bromide, XRPD), the “Physical form after dispersion in PFOB” value is reported as “salt form of the drug is maintained”. The “Physical stability of the salt form in water” value in data set [3] is “rapidly disproportionates to form indacaterol free base and acetic acid”. For the same molecule, the “Physical stability of the salt form in water” value in data set [3] (listed as Indacaterol acetate) is “rapidly disproportionating to form indacaterol free base and acetic acid”. In addition, the “Mean delivered dose (% nominal)” value in data set [2] was 83.5 % nominal.
Take `C[C@@H]1C[C@H]2[C@@H]3CCC4=CC(=O)C=C[C@]4(C)[C@@]3(Cl)[C@@H](O)C[C@]2(C)[C@@]1(OC(=O)c1ccco1)C(=O)CCl` [mometasone furoate, (11β,16α)-9,21-dichloro-17-[(2-furanylcarbonyl)oxy]-11-hydroxy-16-methylpregna-1,4-diene-3,20-dione]: in data set [1], the “×50” value is on record as 1.22 μm and the “×90” value is 2.45 μm. Also, the “Mean delivered dose (% nominal)” value in data set [2] came out at 84.8 % nominal.
With `CCc1cc2c(cc1CC)CC(NC[C@H](O)c1ccc(O)c3[nH]c(=O)ccc13)C2` [indacaterol, (R)-5-[2-(5,6-diethyl-indan-2-ylamino)-1-hydroxyethyl]-8-hydroxy-1H-quinolin-2-one], on β2-adrenoceptor, the Duration of action result is “over 24 hours” and the Onset of action entry is on record as “about 10 minutes”.

The values are drawn from patent US9744178B2, “Respirable agglomerates of porous carrier particles and micronized drug” (Novartis AG, priority 2013, dated 2017).
